Data on one compound can be found in paper PMC5460289, “Identification of New Shikonin Derivatives as Antitumor Agents Targeting STAT3 SH2 Domain” (Scientific Reports, 2017).

Series [1] can be described thus: MTT anti-proliferation assay, non-tumorigenic cells. To be noted: human, non-tumorigenic MCF-10A cells, 24 h treatment. It is filed as cell-based. Here is the method: Initial experiments were performed for evaluation of growth inhibition by the new compounds against six human breast cancer cell lines, including MCF-7 (ER+/PR+, HER-2-), BT474 (ER+/PR+, HER-2+), SKBR-3 (ER-/PR-/HER-2+), MDA-MB-436 (ER-/PR-/HER-2-), MDA-MB-231 (ER-/PR-/HER-2-), MDA-MB-468 (ER-/PR-/HER-2-) and non-tumorigenic MCF-10A cells. After 24 h treatment by the obtained compounds, the inhibition was assessed and the IC50 was summarized. […] Subsequently, the inhibition of STAT3 activation by PMM-172 and Stattic was evaluated using a dual-luciferase assay.
The anti-proliferative activities of the prepared compounds against MCF-7 (ER+/PR+, HER-2-), BT474 (ER+/PR+, HER-2+), SKBR-3 (ER-/PR-/HER-2+), MDA-MB-436 (ER-/PR-/HER-2-), MDA-MB-231 (ER-/PR-/HER-2-), MDA-MB-468 (ER-/PR-/HER-2-) and non-tumorigenic MCF-10A cell lines were evaluated using a standard (MTT)-based colorimetric assay with some modification. Cell lines were grown to log phase in DMEM supplemented with 10% fetal bovine serum. Cell suspensions were prepared and 100 μL/well dispensed into 96-well plates giving 10^4 cells/well. The subsequent incubation was permitted at 37 °C, 5% CO2 atmosphere for 24 h to allow the cells to reattach. Subsequently, cells were treated with the target compounds at increasing concentrations in the presence of 10% FBS for 24 h. Then, cell viability was assessed by the conventional 3-(4, 5-dimethylthiazol-2-yl)-2, 5-diphenyltetrazolium bromide (MTT) reduction assay and carried out strictly according to the manufacturer instructions. The absorbance (OD570) was read on an ELISA reader (Tecan, Austria). In all experiments, three replicate wells were used for each drug concentration. Each assay was carried out for at least three times.

The subject of series [2] is STAT3 nuclear localization in MDA-MB-231 cells. Nature of the series: STAT3 nuclear localization (cytoplasmic and nuclear extracts, Western blot). It is filed as cell-based, human. To be noted: MDA-MB-231, 24 h. Here is the method: It is known that the dimerization of STAT3 is induced by the phosphorylation at residue Tyr 705, which then leads to its nuclear translocation. Herein, we investigated the effect of PMM-172 and Stattic on STAT3 nuclear translocation. The cytoplasmic and nuclear proteins of treated cells were extracted and the expressions of STAT3 in both fractions were examined.
Figure 7 MDA-MB-231 cells were treated with indicated concentrations of PMM-172 or Stattic for 24 h, the expression levels of STAT3 in cytoplasmic and nuclear extracts were examined and relative expression levels were analyzed by Image J software. β-actin and Lamin B1 served as markers of cytoplasmic and nuclear extractions, respectively. […] (C) MCF-10A cells were treated with the indicated concentrations of PMM-172 for 24 h. PMM-172 had no effect on the level of the pSTAT3 level in MCF-10A cells. […] Data were shown as mean ± SD from three independent experiments, **P < 0.01. Cropped blots/gels were used in the figure and the gels had been run under the same experimental conditions; the full-length blots/gels are presented in Supplementary Figure S3.
To examine the relative proportion of STAT3 in the cytoplasm and nucleus, cytoplasmic and nuclear extracts were prepared. In brief, control and treated cells were collected and suspended in a buffer containing 10 mM HEPES (pH 7.9), 10 mM KCl, 0.1 mM EDTA (pH 8.0), 0.1 mM EGTA (pH 7.0), 1 mM DTT, 0.5 mM PMSF, 2 μg/mL leupeptin, 2 μg/mL aprotonin, 0.5 mg/mL benzamidine. After 15 min, NP-40 (0.25%) was added, and cell lysate was vortexed for 10 s and centrifuged at 10000 rmp at 4 °C for 1 min. […] The protein content in the nuclear and cytoplasmic fractions was determined using a Pierce BCA protein assay kit.
Cells were rinsed twice with cold PBS and then lysed with RIPA buffer containing a protease inhibitor mixture at 1:100 dilution on ice for 30 min. Insoluble components of cell lysates were removed by centrifugation (4 °C, 12000 rmp, 10 min), and protein concentrations were measured using a Pierce BCA protein assay kit. […]
A general note: In western blotting, separated proteins are transferred to a membrane and probed.

What is called CC50 is the concentration at which the toxic effect on the cells reaches its halfway point.

As to `COc1cc(OC)cc(-c2nnc(SCC(=O)O[C@H](CC=C(C)C)C3=CC(=O)c4c(O)ccc(O)c4C3=O)o2)c1` [PMM-172, (R)-1-(5,8-dihydroxy-1,4-dioxo-1,4-dihydronaphthalen-2-yl)-4-methylpent-3-en-1-yl 2-((5-(3,5-dimethoxyphenyl)-1,3,4-oxadiazol-2-yl)thio)acetate], the cytotoxic concentration (CC50) at 24 h in series [1] was 95.4 ± 0.62 µM. In addition, in series [2], the “level of STAT3 in the cytoplasmic fraction” value is “slightly increased” and the “level of STAT3 in the nuclear fraction” value is listed as “decreased by PMM-172 in a dose-dependent manner”.
